Each block holds one molecule with its values, some of them ahead of it.
Columns and labels:
Type in all cases: cell-based
[1] = system: MDA-MB-231; assay: inhibition of proliferation (PicoGreen DNA assay), MDA-MB-231; conditions: Homo sapiens
Procedure: (§1) We tested a subset of the 50 sulfonamide analogues for inhibition of proliferation of the MDA-MB-231, PC-3, MCF-7, and HCT-116 cancer cell lines. Following plating of the cells (24 hrs) in eight identical 96-well plates, the cells were treated with either Compound 1, 4, 15, or vehicle (DMSO) using a dose range of 1.6 to 5000 nM. After the lysis of cells, the cell lysate was resuspended in 25 μl PBS and the DNA was quantified using a PicoGreen assay by measuring fluorescence at Ex490 nm/Em535 nm. Cell proliferation was inhibited by Compounds 1, 4, and 15 for all the cancer cell lines tested with inhibition constants listed in Table 2.

[2] = system: MCF-7; assay: inhibition of proliferation (PicoGreen DNA assay), MCF-7; conditions: Homo sapiens, MCF7
Procedure: as §1

[3] = system: PC-3; assay: inhibition of proliferation (PicoGreen DNA assay), PC-3; conditions: Homo sapiens
Procedure: as §1

[4] = system: PC-3; assay: viability (Alamar Blue), PC-3; conditions: Homo sapiens; PC-3, 24 hrs
Procedure: (§2) Given Compounds 1, 4, and 15 inhibited cancer cell proliferation and stimulated apoptosis, we tested the effects compounds 1, 4, and 15 on cancer cell viability and cytotoxicity. The MDA-MB-231, MCF-7, PC-3, and HCT-116 cells were treated with the indicated compounds for 24 hrs. over a dose range from 1.6 to 5000 nM. Viability and cytotoxicity were then measured by the Alamar Blue and Vibrant Cytotox assays respectively.

[5] = system: HCT-116; assay: viability (Alamar Blue), HCT-116; conditions: Homo sapiens; HCT-116, 24 hrs
Procedure: as §2

[6] = system: MDA-MB-231; assay: viability (Alamar Blue), MDA-MB-231; conditions: Homo sapiens; MDA-MB-231, 24 hrs
Procedure: as §2

[7] = cytotoxicity (Vibrant Cytotox assay), HCT-116; conditions: human, HCT-116 cells; HCT-116, 24 hrs
Procedure: as §2

[8] = system: Endogenous Target Genes for Wnt & Apoptotic Pathways in MDA-MB 231; assay: qPCR of Wnt and pro-apoptotic target genes, MDA-MB 231; set-up: concentration or dose not given beside the values; conditions: MDA-MB 231, 24 hrs, qPCR normalized to 36B4
Procedure: (§3) Given the effects of Compounds 1, 4, and 15 on biological functions (e.g., proliferation, viability, and apoptosis) in several cancer cell lines, we tested the effects of compounds 1, 4, and 15 on regulation of endogenous Wnt and pro-apoptotic gene expression. MDA-MB-231, MCF-7, PC-3, and HCT-116 cancerncells were treated with the indicated compounds for 24 hrs. over a dose range from 1.6 to 5000 nM. Gene expression was measured using qPCR, normalized to the housekeeping gene, 36B4, and calculated % change relative to DMSO control. NC, no change.

[9] = system: Endogenous Target Genes for Wnt & Apoptotic Pathways in MCF-7; assay: qPCR of Wnt and pro-apoptotic target genes, MCF-7; set-up: MYC expression, % change relative to DMSO control / BAX expression, % change relative to DMSO control / BAK expression, % change relative to DMSO control / BBC3 expression, % change relative to DMSO control / FOS expression, % change relative to DMSO control: concentration or dose not given beside the values; conditions: MCF-7, 24 hrs, qPCR normalized to 36B4
Procedure: as §3

[10] = system: Endogenous Target Genes for Wnt & Apoptotic Pathways in LNCAP; assay: qPCR of Wnt and pro-apoptotic target genes, LNCAP; set-up: MYC expression, % change relative to DMSO control / CCDN1 expression, % change relative to DMSO control / BAX expression, % change relative to DMSO control / BAK expression, % change relative to DMSO control / BBC3 expression, % change relative to DMSO control / FOS expression, % change relative to DMSO control: concentration or dose not given beside the values; conditions: 24 hrs, qPCR normalized to 36B4
[11] = system: Endogenous Target Genes for Wnt & Apoptotic Pathways in PC-3; assay: qPCR of Wnt and pro-apoptotic target genes, PC-3; set-up: concentration or dose not given beside the values; conditions: PC-3, 24 hrs, qPCR normalized to 36B4
Procedure: as §3

[12] = system: Endogenous Target Genes for Wnt & Apoptotic Pathways in HCT-116; assay: qPCR of Wnt and pro-apoptotic target genes, HCT-116; set-up: MYC expression, % change relative to DMSO control / CCDN1 expression, % change relative to DMSO control / BAX expression, % change relative to DMSO control / BBC3 expression, % change relative to DMSO control / FOS expression, % change relative to DMSO control: concentration or dose not given beside the values; conditions: HCT-116, 24 hrs, qPCR normalized to 36B4
Procedure: as §3

[13] = system: HCT-116 and MCF-7 cancer cells; p53 −/− isogenic HCT-116 cells; assay: morphology change of cancer cells with and without p53; conditions: for morphology change in cancer cells with wild-type and mutant p53: HCT-116 and MCF-7, 500 nM for 24 hours; for morphology change in cells lacking p53: −/− p53 isogenic HCT-116 cells, 500 nM for 24 hours
Description: Using the same treatment conditions, this morphology change was not observed in […] cells lacking p53 (i.e., −/− p53, isogenic HCT-116 cells) highlighting the integral importance of p53 protein in the mechanism of action of the disclosed compounds.

IC50 [1]: 100 nM
IC50 [2]: 20 nM
IC50 [3]: 20 nM
IC50 [4]: 157 nM
IC50 [5]: 30 nM
IC50 [6]: 35 nM
SMILES: O=C1CCCN1c1ccc(S(=O)(=O)N2CCCc3ccccc32)cc1 [Compound 1, 1-(4-(3,4-dihydroquinolin-1(2H)-ylsulfonyl)phenyl)pyrrolidin-2-one]
IC50 at 24 h [7]: > 5000 nM
BAK expression, % change relative to DMSO control [8]: −42%
BAX expression, % change relative to DMSO control [8]: −70%
BBC3 expression, % change relative to DMSO control [8]: −78%
CCDN1 expression, % change relative to DMSO control [8]: −72%
JUN expression, % change relative to DMSO control [8]: −50%
MYC expression, % change relative to DMSO control [8]: −70%
BAK expression, % change relative to DMSO control [9]: −10%
BBC3 expression, % change relative to DMSO control [9]: −55%
CCDN1 expression, % change relative to DMSO control [9]: +50%
FOS expression, % change relative to DMSO control [9]: −70%
JUN expression, % change relative to DMSO control [9]: +125%
MYC expression, % change relative to DMSO control [9]: −25%
BAK expression, % change relative to DMSO control [10]: −22%
BAX expression, % change relative to DMSO control [10]: −30%
BBC3 expression, % change relative to DMSO control [10]: −90%
CCDN1 expression, % change relative to DMSO control [10]: −10%
FOS expression, % change relative to DMSO control [10]: −15%
MYC expression, % change relative to DMSO control [10]: −35%
BAK expression, % change relative to DMSO control [11]: −20%
BAX expression, % change relative to DMSO control [11]: +5%
BBC3 expression, % change relative to DMSO control [11]: −38%
CCDN1 expression, % change relative to DMSO control [11]: +10%
FOS expression, % change relative to DMSO control [11]: +75%
JUN expression, % change relative to DMSO control [11]: +75%
MYC expression, % change relative to DMSO control [11]: +25%
BAK expression, % change relative to DMSO control [12]: +75%
BAX expression, % change relative to DMSO control [12]: +5%
BBC3 expression, % change relative to DMSO control [12]: −80%
CCDN1 expression, % change relative to DMSO control [12]: +40%
FOS expression, % change relative to DMSO control [12]: −70%
JUN expression, % change relative to DMSO control [12]: +525%
MYC expression, % change relative to DMSO control [12]: −45%
morphology change in cancer cells with wild-type and mutant p53 [13]: morphology change from a flat adherent cell to a rounded non-adherent one
morphology change in cells lacking p53 [13]: not observed

SMILES: CC1CCc2ccccc2N1S(=O)(=O)c1ccc(N2CCCC2=O)cc1 (stereo not shown) [Compound 4, 1-(4-(2-methyl-3,4-dihydroquinolin-1(2H)-ylsulfonyl)phenyl)pyrrolidin-2-one]
IC50 [1]: 250 nM
IC50 [2]: 40 nM
IC50 [3]: 100 nM
IC50 [4]: 17 nM
IC50 [5]: 52 nM
IC50 [6]: 45 nM
IC50 at 24 h [7]: > 5000 nM
BAK expression, % change relative to DMSO control [8]: −50%
BAX expression, % change relative to DMSO control [8]: −65%
BBC3 expression, % change relative to DMSO control [8]: −80%
CCDN1 expression, % change relative to DMSO control [8]: −25%
FOS expression, % change relative to DMSO control [8]: +100%
JUN expression, % change relative to DMSO control [8]: −45%
MYC expression, % change relative to DMSO control [8]: −55%
BAK expression, % change relative to DMSO control [9]: +25%
BAX expression, % change relative to DMSO control [9]: +75%
BBC3 expression, % change relative to DMSO control [9]: −40%
CCDN1 expression, % change relative to DMSO control [9]: +100%
FOS expression, % change relative to DMSO control [9]: −85%
JUN expression, % change relative to DMSO control [9]: +50%
MYC expression, % change relative to DMSO control [9]: −5%
BAK expression, % change relative to DMSO control [10]: −42%
BAX expression, % change relative to DMSO control [10]: −55%
BBC3 expression, % change relative to DMSO control [10]: −85%
CCDN1 expression, % change relative to DMSO control [10]: −30%
FOS expression, % change relative to DMSO control [10]: −38%
MYC expression, % change relative to DMSO control [10]: −40%
BAK expression, % change relative to DMSO control [11]: −55%
BAX expression, % change relative to DMSO control [11]: −55%
BBC3 expression, % change relative to DMSO control [11]: −37%
CCDN1 expression, % change relative to DMSO control [11]: −42%
FOS expression, % change relative to DMSO control [11]: −25%
JUN expression, % change relative to DMSO control [11]: −25%
MYC expression, % change relative to DMSO control [11]: −75%
BAK expression, % change relative to DMSO control [12]: +110%
BBC3 expression, % change relative to DMSO control [12]: −90%
CCDN1 expression, % change relative to DMSO control [12]: −5%
FOS expression, % change relative to DMSO control [12]: −85%
JUN expression, % change relative to DMSO control [12]: +725%
MYC expression, % change relative to DMSO control [12]: −75%
morphology change in cancer cells with wild-type and mutant p53 [13]: morphology change from a flat adherent cell to a rounded non-adherent one
morphology change in cells lacking p53 [13]: not observed

SMILES: CN1CCN(S(=O)(=O)c2ccc(N3CCCC3=O)cc2)c2ccccc21 [Compound 15, 1-(4-(4-methyl-3,4-dihydroquinoxalin-1(2H)-ylsulfonyl)phenyl)pyrrolidin-2-one]
IC50 [1]: 25 nM
IC50 [2]: 20 nM
IC50 [3]: 20 nM
IC50 [4]: 32 nM
IC50 [5]: 9 nM
IC50 [6]: 93 nM
IC50 at 24 h [7]: > 5000 nM
BAK expression, % change relative to DMSO control [8]: −20%
BAX expression, % change relative to DMSO control [8]: −62%
BBC3 expression, % change relative to DMSO control [8]: −65%
CCDN1 expression, % change relative to DMSO control [8]: −22%
FOS expression, % change relative to DMSO control [8]: −10%
JUN expression, % change relative to DMSO control [8]: −38%
MYC expression, % change relative to DMSO control [8]: −50%
BAK expression, % change relative to DMSO control [9]: +45%
BAX expression, % change relative to DMSO control [9]: −25%
BBC3 expression, % change relative to DMSO control [9]: +75%
CCDN1 expression, % change relative to DMSO control [9]: +50%
FOS expression, % change relative to DMSO control [9]: −75%
JUN expression, % change relative to DMSO control [9]: +150%
MYC expression, % change relative to DMSO control [9]: −50%
BAK expression, % change relative to DMSO control [10]: −45%
BAX expression, % change relative to DMSO control [10]: −58%
BBC3 expression, % change relative to DMSO control [10]: −55%
CCDN1 expression, % change relative to DMSO control [10]: −28%
FOS expression, % change relative to DMSO control [10]: −25%
JUN expression, % change relative to DMSO control [10]: +45%
MYC expression, % change relative to DMSO control [10]: −45%
BAK expression, % change relative to DMSO control [11]: −58%
BAX expression, % change relative to DMSO control [11]: −54%
BBC3 expression, % change relative to DMSO control [11]: −45%
CCDN1 expression, % change relative to DMSO control [11]: −30%
FOS expression, % change relative to DMSO control [11]: −24%
JUN expression, % change relative to DMSO control [11]: −30%
MYC expression, % change relative to DMSO control [11]: −60%
BAK expression, % change relative to DMSO control [12]: +98%
BAX expression, % change relative to DMSO control [12]: −5%
BBC3 expression, % change relative to DMSO control [12]: −95%
CCDN1 expression, % change relative to DMSO control [12]: +25%
FOS expression, % change relative to DMSO control [12]: −84%
JUN expression, % change relative to DMSO control [12]: +775%
MYC expression, % change relative to DMSO control [12]: −70%
morphology change in cancer cells with wild-type and mutant p53 [13]: morphology change from a flat adherent cell to a rounded non-adherent one
morphology change in cells lacking p53 [13]: not observed
